Consider 29 compounds from article PMC4099110, “Synthesis and Evaluation of Novel Pyrroles and Pyrrolopyrimidines as Anti-Hyperglycemic Agents” (BioMed Research International, 2014).

Series [1] concerns male Wistar albino rats. Put plainly: Streptozotocin (STZ) model of diabetes, blood glucose AUC. It is filed as in vivo, rat. The conditions noted are these: decrease in blood glucose relative to Amaryl = 100%; model not stated. The method, then: The complete course of the experiment was conducted using male Wistar albino rats (200-250 g), reared and maintained in the animal house of the institution and provided free access to pelleted food and water ad libitum. The rats were maintained in a controlled environment (12 h light and dark cycle) for about a week for acclimatization. The protocol of the study was approved by the animal ethics committee of the Faculty of Pharmacy, […] University (10-01-2012). The study was conducted in accordance with the EC, directive 86/609/EEC for animal experiments. […] Equivalent doses of all derivatives were calculated according to their molecular weight [M·wt]. Diabetes was induced in overnight fasted rats with a single intraperitoneal injection of streptozotocin (STZ) (Sigma-Aldrich, Co., St. Louis, USA. Catalog number: 1001062761) in a dose of 65 mg/kg. STZ was freshly dissolved in ice cold citrate buffer (0.01 M, pH 4.5) prior to injection. […] Group 2, diabetic + Glimepiride ([…]) (4 mg/kg), served as a reference antidiabetic drug. Groups (3-14) were given the various pyrrole derivatives ([…], b, f, and VIIIf, a, resp.). The treated groups administered the […] and different derivatives orally. For each group, blood glucose was estimated at zero, one, two, four, and six hours after oral administration of derivatives using glucometer (Gluco Dr Super Sensor, AllMedicus Co., Ltd., Anyang, Gyeonggi, Korea). Data were represented as mean area under curve (AUC) ± SD. Significant differences between groups was tested using GraphPad InStat (Graph software Inc., V 3.05, Ralph […], Purdue University). Appropriate graphs were plotted using Microsoft Excel 2007.

Broadly, the melting point is the temperature of the solid-liquid transition. Take `Nc1ncnc2c1c(-c1ccccc1)c(-c1ccccc1)n2-c1ccc(Cl)c(Cl)c1` [IIId, 7-(3,4-Dichlorophenyl)-5,6-diphenyl-7H-pyrrolo[2,3-d]pyrimidin-4-amine]: the melting point fell in the range of 115 to 118 °C.
Compound `Cc1c(-n2cc(-c3ccccc3)c3c(=S)[nH]cnc32)c(=O)n(-c2ccccc2)n1C` [VIe, 1,5-Dimethyl-2-phenyl-4-(5-phenyl-4-thioxo-3H-pyrrolo[2,3-d]pyrimidin-7(4H)-yl)-1H-pyrazol-3(2H)-one] displayed a melting point of 142 to 166 °C.
On to `O=c1[nH]cnc2c1c(-c1ccccc1)c(-c1ccccc1)n2-c1ccc(Cl)c(Cl)c1` [IId, 7-(3,4-Dichlorophenyl)-5,6-diphenyl-3H-pyrrolo[2,3-d]pyrimidin-4(7H)-one], for which the melting point fell in the range of 172 to 176 °C.
Compound `Cc1nc2c(c(-c3ccccc3)c(-c3ccccc3)n2-c2ccc(Cl)c(Cl)c2)c(=O)[nH]1` [IIi, 7-(3,4-Dichlorophenyl)-2-methyl-5,6-diphenyl-3H-pyrrolo[2,3-d]pyrimidin-4(7H)-one] came in with a melting point of 200 to 202 °C.
`Clc1ccc(-n2c(-c3ccccc3)c(-c3ccccc3)c3c(Cl)ncnc32)cc1Cl` [IVd, 4-Chloro-7-(3,4-dichlorophenyl)-5,6-diphenyl-7H-pyrrolo[2,3-d]pyrimidine]: the melting point was 124 to 128 °C.
Still for that read-out and setting: to `S=c1[nH]cnc2c1c(-c1ccccc1)c(-c1ccccc1)n2-c1ccc(Cl)c(Cl)c1` [VId, 7-(3,4-Dichlorophenyl)-5,6-diphenyl-3H-pyrrolo[2,3-d]pyrimidine-4(7H)-thione] belongs 142 to 166 °C; to `Cc1nc2c(c(-c3ccccc3)c(-c3ccccc3)n2Cc2ccccc2)c(=S)[nH]1` [VIf, 7-Benzyl-2-methyl-5,6-diphenyl-3H-pyrrolo[2,3-d]pyrimidine-4(7H)-thione], 165 to 167 °C; to `CC(=O)Nc1c(C#N)c(-c2ccccc2)c(-c2ccccc2)n1-c1ccc(Cl)c(Cl)c1` [In, N-(3-Cyano-1-(3,4-dichlorophenyl)-4,5-diphenyl-1H -pyrrol-2-yl) acetamide], 135 to 138 °C.
Consider `Cc1c(-n2cc(-c3ccccc3)c3c(N)nc(=S)[nH]c32)c(=O)n(-c2ccccc2)n1C` [IIIj, 4-(4-Amino-5-phenyl-2-thioxo-1H-pyrrolo[2,3-d]pyrimidin-7(2H)-yl)-1,5-dimethyl-2-phenyl-1H-pyrazol-3(2H)-one], for which the melting point fell in the range of 172 to 174 °C.
The compound `N#Cc1c(-c2ccccc2)c(-c2ccccc2)n(-c2ccc(Cl)c(Cl)c2)c1NN=C1C(N)=NN=C1N` [VIIId, 2-(2-(3,5-Diamino-4H-pyrazol-4-ylidene)hydrazinyl)-1-(3,4-dichlorophenyl)-4,5-diphenyl-1H-pyrrole-3-carbonitrile] showed a melting point of 120 to 124 °C.
In the case of `Cc1c(-n2cc(-c3ccccc3)c3c(Cl)ncnc32)c(=O)n(-c2ccccc2)n1C` [IVe, 4-(4-Chloro-5-phenyl-7H-pyrrolo[2,3-d]pyrimidin-7-yl)-1,5-dimethyl-2-phenyl-1H-pyrazol-3(2H)-one], the melting point was 125 to 130 °C.
The compound `Cc1nc2c(c(-c3ccccc3)cn2-c2c(C)n(C)n(-c3ccccc3)c2=O)c(=O)[nH]1` [IIj, 7-(1,5-Dimethyl-3-oxo-2-phenyl-2,3-dihydro-1H-pyrazol-4-yl)-2-methyl-5-phenyl-3H-pyrrolo[2,3-d]pyrimidin-4(7H)-one] showed a melting point of 225 to 227 °C.
Turning to `Cc1nc(Cl)c2c(-c3ccccc3)c(-c3ccccc3)n(Cc3ccccc3)c2n1` [IVf, 7-Benzyl-4-chloro-2-methyl-5,6-diphenyl-7H-pyrrolo[2,3-d]pyrimidine], the melting point lay in the range of 120 to 124 °C.
`NNc1ncnc2c1c(-c1ccccc1)c(-c1ccccc1)n2-c1ccc(Cl)c(Cl)c1` [Vd, 7-(3,4-Dichlorophenyl)-4-hydrazinyl-5,6-diphenyl-7H-pyrrolo[2,3-d]pyrimidine] had a melting point of 122 to 126 °C.
Compound `Cc1nc(NN)c2c(-c3ccccc3)c(-c3ccccc3)n(Cc3ccccc3)c2n1` [Vf, 7-Benzyl-4-hydrazinyl-2-methyl-5,6-diphenyl-7H-pyrrolo[2,3-d] pyrimidine] displayed a melting point of 147 to 152 °C.
Regarding `Cc1c(-n2cc(-c3ccccc3)c3c(N)ncnc32)c(=O)n(-c2ccccc2)n1C` [IIIe, 4-(4-Amino-5-phenyl-7H-pyrrolo[2,3-d]pyrimidin-7-yl)-1,5-dimethyl-2-phenyl-1H-pyrazol-3(2H)-one], the melting point lay in the range of 152 to 155 °C.
In turn, `Cc1nc(NN)c2c(-c3ccccc3)c(-c3ccccc3)n(-c3c(C)n(C)n(-c4ccccc4)c3=O)c2n1` [Vg, 4-(4-Hydrazinyl-2-methyl-5,6-diphenyl-7H-pyrrolo[2,3-d]pyrimidin-7-yl)-1,5-dimethyl-2-phenyl-1H-pyrazol-3(2H)-one] registered a melting point of 185 to 188 °C. In series [1], the “Potency of antihyperglycemic derivatives compared to Amaryl” value worked out at 36.19%.
In turn, `N#Cc1c(-c2ccccc2)c(-c2ccccc2)n(Cc2ccccc2)c1NN=C1C(N)=NN=C1O` [VIIIf, 2-(2-(3-Amino-5-hydroxy-4H-pyrazol-4-ylidene)hydrazinyl)-1-benzyl-4,5-diphenyl-1H-pyrrole-3-carbonitrile] yielded a melting point of 97 to 100 °C.
The same measure, in the same setting: to `Nc1nc(=S)[nH]c2c1c(-c1ccccc1)c(-c1ccccc1)n2-c1ccc(Cl)c(Cl)c1` [IIIi, 4-Amino-7-(3,4-dichlorophenyl)-5,6-diphenyl-1H-pyrrolo[2,3-d] pyrimidine-2(7H)-thione] belongs 90 to 95 °C; to `Cc1nc(NN)c2c(-c3ccccc3)c(-c3ccccc3)n(-c3ccc(Cl)c(Cl)c3)c2n1` [Vh, 7-(3,4-Dichlorophenyl)-4-hydrazinyl-2-methyl-5,6-diphenyl-7H-pyrrolo[2,3-d]pyrimidine], 142 to 146 °C; to `CC(=O)Nc1c(C#N)c(-c2ccccc2)cn1-c1c(C)n(C)n(-c2ccccc2)c1=O` [Io, N-(3-Cyano-1-(1,5-dimethyl-3-oxo-2-phenyl-2,3-dihydro-1H -pyrazol-4-yl)-4-phenyl-1H -pyrrol-2-yl)acetamide], 135 to 138 °C.
`CCOC(=O)C(C#N)=NNc1c(C#N)c(-c2ccccc2)c(-c2ccccc2)n1Cc1ccccc1` [VIIf, Ethyl 2-(2-(1-Benzyl-3-cyano-4,5-diphenyl-1H-pyrrol-2-yl)hydrazono)-2-cyano-acetate]: the melting point was in the range of 125 to 130 °C.
On the same count and under the same terms, with `Cc1nc(Cl)c2c(-c3ccccc3)cn(-c3c(C)n(C)n(-c4ccccc4)c3=O)c2n1` [IVi, 4-(4-Chloro-2-methyl-5-phenyl-7H-pyrrolo[2,3-d]pyrimidin-7-yl)-1,5-dimethyl-2-phenyl-1H-pyrazol-3(2H)-one] the figure was 95 to 100 °C.
Consider `Cc1c(-n2cc(-c3ccccc3)c3c(=O)[nH]cnc32)c(=O)n(-c2ccccc2)n1C` [IIe, 7-(1,5-Dimethyl-3-oxo-2-phenyl-2,3-dihydro-1H-pyrazol-4-yl)-5-phenyl-3H-pyrrolo[2,3-d]pyrimidin-4(7H)-one], for which the melting point was 205 to 208 °C.
On to `N#Cc1c(-c2ccccc2)c(-c2ccccc2)n(-c2ccc(Cl)c(Cl)c2)c1N` [Id, 2-Amino-1-(3,4-dichlorophenyl)-4,5-diphenyl-1H-pyrrole-3-carbonitrile], for which the melting point was in the range of 118 to 122 °C.
`Cc1nc(NN)c2c(-c3ccccc3)cn(-c3c(C)n(C)n(-c4ccccc4)c3=O)c2n1` [Vi, 4-(4-Hydrazinyl-2-methyl-5-phenyl-7H-pyrrolo[2,3-d]pyrimidin-7-yl)-1,5-dimethyl-2-phenyl-1H-pyrazol-3(2H)-one] displayed a melting point of 148 to 150 °C.
Regarding `Cc1c(-n2cc(-c3ccccc3)c(C#N)c2NN=C2C(N)=NN=C2N)c(=O)n(-c2ccccc2)n1C` [VIIIe, 2-(2-(3,5-Diamino-4H-pyrazol-4-ylidene)hydrazinyl)-1-(1,5-dimethyl-3-oxo-2-phenyl-2,3-dihydro-1H-pyrazol-4-yl)-4-phenyl-1H-pyrrole-3-carbonitrile], the melting point was in the range of 135 to 138 °C.
As for `Cc1nc(Cl)c2c(-c3ccccc3)c(-c3ccccc3)n(-c3ccc(Cl)c(Cl)c3)c2n1` [IVh, 4-Chloro-7-(3,4-dichlorophenyl)-2-methyl-5,6-diphenyl-7H-pyrrolo[2,3-d]pyrimidine], the melting point was in the range of 108 to 110 °C.
With `Cc1c(-n2cc(-c3ccccc3)c3c(NN)ncnc32)c(=O)n(-c2ccccc2)n1C` [Ve, 4-(4-Hydrazinyl-5-phenyl-7H-pyrrolo[2,3-d]pyrimidin-7-yl)-1,5-dimethyl-2-phenyl-1H-pyrazol-3(2H)-one], the melting point is 142 to 146 °C.
